Source: article PMC6910612 (Translational Vision Science & Technology, 2019)

What was measured:
wild-type opsin = wild-type opsin (Homo sapiens, UniProt P08100); assay: 9-cis-retinal binding to opsin; details: 3.0 μM purified wild-type opsin
[1] = tested on: P23H, E181K and T17M rhodopsin; details: cells; cited from earlier work
opsin = details: cited from earlier work
P23H Rho transgenic rats = details: cited from earlier work
P23H rhodopsin = details: P23H knock-in mice; cited from earlier work

In the case of `CC1=C(/C=C/C(C)=C\C=C\C(C)=C\C=O)C(C)(C)CCC1` [9-cis-retinal], the “concentration at which opsin was saturated” value (wild-type opsin) is reported as 5 µM.

In the case of `CC(=C/C(=O)O)/C=C/C=C(\C)C1C=C2C(C)(C)CCCC2(C)O1` (stereo not drawn) [13-cis-5,8-ERA], the “folding and transport of rhodopsin mutants” value [1] is given as “more effective in promoting the folding and transport of the P23H and E181K mutations than it was for the T17M mutation” and the “competition with 9-cis-retinal for binding to opsin” value (opsin) is given as “appeared to compete with 9-cis-retinal for binding to opsin”.

For `CN(C)C(=N)N=C(N)N` [metformin], the retinal degeneration (P23H Rho transgenic rats) is listed as “increased retinal degeneration” and the “transport of P23H rhodopsin to outer segments” value (P23H rhodopsin) is listed as “increased transport of P23H rhodopsin to outer segments”.
